Measured values reported in patent US10603357B2, “Therapeutic TREM-1 peptides” (Universite de Lorraine, priority 2004, dated 2020).
Marks after values point to notes of the source that are not given here.

Columns and labels:
NF-κB p50 and p65 = assay: NF-κB activity in monocytes (ELISA-based assay); assay type: cell-based, human; details: P5 100 ng/mL, 24 hours
Description: Monocytes were cultured for 24 hours in the presence of E. coli LPS (O111:B4, 1 μg/mL), anti-TREM-1 mAb (10 μg/mL) and/or P5 (100 ng/mL) as indicated and the levels of NFκB p50 and p65 were determined using an ELISA-based assay. Experiments were performed in triplicate and data are expressed as means of optical densities (SEM).
In order to activate monocytes through TREM-1, an anti-TREM-1 agonist monoclonal antibody (R&D Systems) was added as follows: flat-bottom plates were precoated with 10 μg/mL anti-TREM-1 per well. After thorough washing in phosphate buffered saline (PBS), the monocyte suspensions were added at a similar concentration as above. Some experiments were performed in the presence of protease inhibitors (PMSF and Protease Cocktail Inhibitor; Invitrogen). Cell-free supernatants were assayed for the production of TNF-α and IL-1β by ELISA according to the recommendations of the manufacturer (BD Biosciences, San Diego, USA). To address the effect of P5 on NF-κB activity in monocytes, an ELISA-based assay was performed (BD Mercury™ Transfactor Kit, BD Biosciences). […] Whole-cell extracts were then prepared and levels of NF-κB p50 and p65 were determined according to the recommendations of the manufacturer. All experiments were performed in triplicate and data are expressed as means (SEM). Identification and Quantitation of sTREM-1 Release

rats = assay: LPS-induced endotoxinemia in rats, haemodynamic and biological measurements; assay type: in vivo, rat; details: for effect on plasma IL-1β release: LPS 15 mg/kg (FIG. 13B); for Nitrite/nitrate concentrations after LPS administration: LPS 15 mg/kg (FIG. 14); for Aortic blood flow / Heart Rate / Lactate / MAP / Mesenteric blood flow / pH (arterial): LPS-induced endotoxinemia
Description: Animals were randomly grouped (n=10-20) and treated with Escherichia coli LPS (0111:B4, Sigma-Aldrich, Lyon, France) i.p. in combination with the TREM-1 or scrambled peptides.
Immediately after LPS administration as well as 16 hours after CLP, arterial BP (systolic, diastolic, and mean), heart rate, abdominal aortic blood flow, and mesenteric blood flow were recorded using a procedure described elsewhere (see Mansart, A. et al. Shock 19:38-44 (2003)). Briefly, the left carotid artery and the left jugular vein were cannulated with PE-50 tubing. Arterial BP was continuously monitored by a pressure transducer and an amplifier-recorder system (IOX EMKA Technologies, Paris, France). Perivascular probes (Transonic Systems, Ithaca, N.Y.) wrapped up the upper abdominal aorta and mesenteric artery, allowed to monitor their respective flows by means of a flowmeter (Transonic Systems). After the last measurement (4th hour during LPS experiments and 24th hour after CLP), animals were sacrificed by an overdose of sodium thiopental i.v.
Blood was sequentially withdrawn from the left carotid artery. Arterial lactate concentrations and blood gases analyses were performed on an automatic blood gas analyser (ABL 735, Radiometer, Copenhagen, Denmark). Concentrations of TNF-α and IL-1β in the plasma were determined by an ELISA test (Biosource, Nivelles, Belgium) according to the recommendations of the manufacturer. Plasmatic concentrations of nitrates/nitrites were measured using the Griess reaction (R&D Systems, Abingdon, UK).

C57BL/6 mice = assay: cecal ligation and puncture (CLP), survival of mice (Example 1); assay type: in vivo, mouse; details: 200 μl of 600 μM i.p. 5 and 24 hours after CLP; 5 days after CLP; 15 per group
Description: CLP was induced in C57BL/6 mice (15 per group) as described in Materials and Methods. P1 peptide (empty dots) or P3 peptide (filled squares) (200 μl of a 600 μM solution per mouse) were injected intraperitoneally 5 and 24 hours after CLP induction. Viability of mice was monitored twice a day for 10 days. Statistical analysis was performed with the Logrank test.
In order to investigate whether TREM-1 peptide treatment could be delayed until after the administration of LPS, the Inventors injected the peptides at 4 hours after LPS injection. […] 80% of the mice injected with P1 4 hours after LPS survived endotoxaemia compared to 60% of mice treated 1 h before LPS and 10% of mice treated with vehicle alone (p<0.001 and p<0.01 respectively). Thus, P1 is effective even when injected after the outbreak of endotoxaemia. […] P1 administration conferred maximal protection (80%) when administered at 600 μM (p<0.01) and the level of protection dropped to 50% at 300 μM (p<0.05) and further down to 30% at 150 μM as compared to 20% of control mice, indicating a dose dependent effect of P1 (FIG. 4). The Inventors then investigated whether P1 protects against septic shock in the “CLP” model (Cecal Ligation and Puncture is a widely used experimental model of sepsis). […]

LQVTDSGLYRCVIYHPP [P5]
effect of LPS on NF-κB activation (NF-κB p50 and p65; LPS 1 μg/mL): did not alter | NF-κB activation induced by the engagement of TREM-1 (NF-κB p50 and p65; anti-TREM-1 mAb 10 μg/mL): inhibited | attenuation of plasma TNF-α production (rats; LPS 15 mg/kg (FIG. 13A)): ~30% | effect on plasma IL-1β release (rats): strongly reduced | Nitrite/nitrate concentrations after LPS administration (rats): remained stable | Aortic blood flow (rats; H0): 48 ± 9 mL/min | Heart Rate (rats; H0): 474 ± 49 bpm | Lactate (rats; H0): 3.4 ± 1.5 mmol/L | MAP (rats; H0): 115 ± 16 mmHg | Mesenteric blood flow (rats; H0): 12.8 ± 6.4 mL/min | pH (arterial) (rats; H0): 7.33 ± 0.04 | Aortic blood flow (rats; H1): 32 ± 8 mL/min | Heart Rate (rats; H1): 498 ± 26 bpm | Lactate (rats; H1): 5.4 ± 1.4 mmol/L | MAP (rats; H1): 99 ± 22 mmHg | Mesenteric blood flow (rats; H1): 11.4 ± 2.7 mL/min | pH (arterial) (rats; H1): 7.28 ± 0.06 | Aortic blood flow (rats; H2): 23 ± 4 ^b mL/min | Heart Rate (rats; H2): 510 ± 42 bpm | Lactate (rats; H2): 5.5 ± 1.6 mmol/L | MAP (rats; H2): 101 ± 18 mmHg | Mesenteric blood flow (rats; H2): 9.2 ± 1.9 mL/min | pH (arterial) (rats; H2): 7.32 ± 0.07 | Aortic blood flow (rats; H3): 20 ± 7 ^b mL/min | Heart Rate (rats; H3): 517 ± 62 bpm | Lactate (rats; H3): 5.9 ± 1.7 ^b mmol/L | MAP (rats; H3): 93 ± 21 ^b mmHg | Mesenteric blood flow (rats; H3): 6.0 ± 0.8 mL/min | pH (arterial) (rats; H3): 7.29 ± 0.11 | Aortic blood flow (rats; H4): 15 ± 6 ^b mL/min | Heart Rate (rats; H4): 510 ± 26 bpm | Lactate (rats; H4): 7.4 ± 1.8 ^b mmol/L | MAP (rats; H4): 89 ± 10 ^b mmHg | Mesenteric blood flow (rats; H4): 5.0 ± 1.0 mL/min | pH (arterial) (rats; H4): 7.28 ± 0.12 ^b

LVVTQRPFTRPSEVHMGKFTLKH (listed as Mus musculus) [P1]
mice surviving after CLP (C57BL/6 mice): 40% | effect on LPS-induced plasma TNF-α production (rats; LPS 15 mg/kg (FIG. 13A)): no effect | effect on plasma IL-1β release (rats): delayed the IL-1β peak until the third hour after LPS injection, but without attenuation | Nitrite/nitrate concentrations after LPS administration (rats): increased rapidly | Aortic blood flow (rats; H0): 49 ± 11 mL/min | Heart Rate (rats; H0): 464 ± 25 bpm | Lactate (rats; H0): 2.7 ± 0.1 mmol/L | MAP (rats; H0): 116 ± 10 mmHg | Mesenteric blood flow (rats; H0): 12.0 ± 3.7 mL/min | pH (arterial) (rats; H0): 7.32 ± 0.04 | Aortic blood flow (rats; H1): 39 ± 12 ^a mL/min | Heart Rate (rats; H1): 492 ± 26 bpm | Lactate (rats; H1): 4.9 ± 1.1 mmol/L | MAP (rats; H1): 119 ± 14 mmHg | Mesenteric blood flow (rats; H1): 10.5 ± 1.7 mL/min | pH (arterial) (rats; H1): 7.29 ± 0.04 | Aortic blood flow (rats; H2): 26 ± 14 ^a mL/min | Heart Rate (rats; H2): 492 ± 26 bpm | Lactate (rats; H2): 5.0 ± 0.9 mmol/L | MAP (rats; H2): 113 ± 21 mmHg | Mesenteric blood flow (rats; H2): 7.7 ± 2.7 mL/min | pH (arterial) (rats; H2): 7.30 ± 0.01 | Aortic blood flow (rats; H3): 22 ± 8 ^a mL/min | Heart Rate (rats; H3): 480 ± 30 bpm | Lactate (rats; H3): 5.7 ± 0.7 ^a mmol/L | MAP (rats; H3): 97 ± 29 ^a mmHg | Mesenteric blood flow (rats; H3): 5.0 ± 1.0 mL/min | pH (arterial) (rats; H3): 7.26 ± 0.06 | Aortic blood flow (rats; H4): 16 ± 6 ^a mL/min | Heart Rate (rats; H4): 480 ± 20 bpm | Lactate (rats; H4): 7.9 ± 1.7 ^a mmol/L | MAP (rats; H4): 92 ± 7 ^a mmHg | Mesenteric blood flow (rats; H4): 4.8 ± 0.9 mL/min | pH (arterial) (rats; H4): 7.26 ± 0.08 ^a
